Experimental findings from ChEMBL document CHEMBL1143431, “Synthesis and evaluation of pyrazolo[1,5-b]pyridazines as selective cyclin dependent kinase inhibitors” (Bioorg Med Chem Lett, 2008) are described below.

Data set [1] deals with Cyclin-dependent kinase 2 (Homo sapiens, UniProt P24941). In words: Inhibition of human CDK2 by HTRF assay. (Time-resolved FRET reads energy transfer from a long-lived donor to a nearby acceptor.)
The target in data set [2] is Cyclin-dependent kinase 4 (Homo sapiens, UniProt P11802). The data set is described as follows: Inhibition of CDK4 by radioactive glutathione plate-binding assay.
Data set [3] concerns the target Glycogen synthase kinase-3 beta (Homo sapiens, UniProt P49841). In words: Inhibition of GSK3-beta by scintillation proximity assay.
Data set [4] addresses Vascular endothelial growth factor receptor 2 (Homo sapiens, UniProt P35968). The data set is described as follows: Inhibition of VEGFR2 by HTRF assay.
For data set [5], the system named is Mus musculus. In words: Dose normalized AUC in orally dosed mouse. It counts as ADME, organism-based. Conditions: in vivo, po.
The nature of data set [6]: Metabolic stability at mouse liver S9 fraction after 60 mins. In kind it is ADME, subcellular. As to conditions: read-out: Stability.
The test system of data set [7] is Mus musculus. In words: Dose normalized AUC in ip dosed mouse. It counts as ADME, organism-based. Conditions: in vivo.

Chain of Cyclin-dependent kinase 4 (P11802 whole entry): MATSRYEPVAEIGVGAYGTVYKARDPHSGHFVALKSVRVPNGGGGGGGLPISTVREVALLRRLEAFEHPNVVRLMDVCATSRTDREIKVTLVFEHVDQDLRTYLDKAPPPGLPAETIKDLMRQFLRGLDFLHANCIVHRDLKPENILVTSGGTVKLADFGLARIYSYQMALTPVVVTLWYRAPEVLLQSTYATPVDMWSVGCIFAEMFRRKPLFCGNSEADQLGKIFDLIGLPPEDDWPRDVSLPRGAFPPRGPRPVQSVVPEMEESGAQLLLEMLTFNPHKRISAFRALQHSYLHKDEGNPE
Chain of Vascular endothelial growth factor receptor 2 (P35968 whole entry): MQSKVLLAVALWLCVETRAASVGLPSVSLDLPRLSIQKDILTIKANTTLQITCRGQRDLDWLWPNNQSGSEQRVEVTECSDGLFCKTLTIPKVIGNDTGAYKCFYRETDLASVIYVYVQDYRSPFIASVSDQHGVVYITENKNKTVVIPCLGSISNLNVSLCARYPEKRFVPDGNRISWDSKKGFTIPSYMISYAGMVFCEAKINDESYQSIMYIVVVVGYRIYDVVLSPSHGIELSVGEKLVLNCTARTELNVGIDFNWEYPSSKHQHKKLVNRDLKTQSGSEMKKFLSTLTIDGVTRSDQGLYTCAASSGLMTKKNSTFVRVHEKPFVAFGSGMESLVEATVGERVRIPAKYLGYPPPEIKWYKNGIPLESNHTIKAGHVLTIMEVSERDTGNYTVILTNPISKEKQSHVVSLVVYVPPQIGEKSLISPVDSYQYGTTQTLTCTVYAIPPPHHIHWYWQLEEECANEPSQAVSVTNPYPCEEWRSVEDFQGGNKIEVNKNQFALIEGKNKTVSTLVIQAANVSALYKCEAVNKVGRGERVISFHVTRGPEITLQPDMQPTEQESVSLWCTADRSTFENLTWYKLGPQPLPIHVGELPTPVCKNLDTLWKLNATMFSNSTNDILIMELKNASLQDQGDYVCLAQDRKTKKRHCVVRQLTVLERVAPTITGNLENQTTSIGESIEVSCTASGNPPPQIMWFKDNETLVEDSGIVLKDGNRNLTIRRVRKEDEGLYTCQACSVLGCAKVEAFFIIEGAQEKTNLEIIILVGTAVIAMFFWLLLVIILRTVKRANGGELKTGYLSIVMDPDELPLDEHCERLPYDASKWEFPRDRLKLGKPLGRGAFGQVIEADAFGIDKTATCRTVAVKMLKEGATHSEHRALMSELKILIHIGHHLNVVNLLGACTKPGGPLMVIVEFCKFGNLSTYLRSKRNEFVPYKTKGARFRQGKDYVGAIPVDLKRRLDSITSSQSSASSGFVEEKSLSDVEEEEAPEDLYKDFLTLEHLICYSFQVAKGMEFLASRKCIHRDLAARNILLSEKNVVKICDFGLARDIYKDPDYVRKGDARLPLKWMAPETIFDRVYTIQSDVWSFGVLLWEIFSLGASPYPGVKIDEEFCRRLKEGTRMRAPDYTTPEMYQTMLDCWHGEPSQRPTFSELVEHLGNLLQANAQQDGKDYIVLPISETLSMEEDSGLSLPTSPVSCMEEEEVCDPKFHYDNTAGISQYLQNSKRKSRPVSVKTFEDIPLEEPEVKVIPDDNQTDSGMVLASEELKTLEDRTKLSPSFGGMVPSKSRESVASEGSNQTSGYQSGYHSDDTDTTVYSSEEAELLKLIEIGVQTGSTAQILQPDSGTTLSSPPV
Chain of Glycogen synthase kinase-3 beta (P49841 whole entry): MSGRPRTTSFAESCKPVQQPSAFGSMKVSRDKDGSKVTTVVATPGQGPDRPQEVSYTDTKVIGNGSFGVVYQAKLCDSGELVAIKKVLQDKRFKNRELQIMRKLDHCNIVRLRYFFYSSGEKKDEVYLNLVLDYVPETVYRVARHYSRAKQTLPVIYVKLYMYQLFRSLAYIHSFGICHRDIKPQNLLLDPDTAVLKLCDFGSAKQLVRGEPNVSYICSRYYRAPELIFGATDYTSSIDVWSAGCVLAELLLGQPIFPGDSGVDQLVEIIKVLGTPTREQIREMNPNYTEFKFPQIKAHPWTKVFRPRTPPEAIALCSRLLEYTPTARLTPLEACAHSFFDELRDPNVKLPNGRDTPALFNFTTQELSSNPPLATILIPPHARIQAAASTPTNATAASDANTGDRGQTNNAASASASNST

The IC50 is the point on the concentration scale where inhibition reaches its midpoint. Take `CN1CCN(c2ccc(Nc3nccc(-c4cnn5nc(-c6ccc(F)cc6)ccc45)n3)cc2)CC1`: the IC50 was 740 nM in data set [1], 26 nM in data set [2] and greater than 25000 nM in data set [3].
The corresponding values for `O=C(O)c1ccc(Nc2nccc(-c3cnn4ncccc34)n2)cc1` are 40 nM, 790 nM and 50 nM.
`C=Cc1ccc2c(-c3ccnc(NC4CC4)n3)cnn2n1`: the IC50 in data set [2] stood at 200 nM; in data set [3] it was 3200 nM.
Take `O=[N+]([O-])c1ccc(Nc2nccc(-c3cnn4ncccc34)n2)cc1`: the results for the IC50 in data set [1], in data set [2] and in data set [3] were 3 nM, 8 nM and 5 nM, respectively.
For `c1cc(Nc2nccc(-c3cnn4ncccc34)n2)cc(-c2cocn2)c1`, the concentration for half-maximal inhibition (IC50) turned out to be 3 nM in data set [1], 16 nM in data set [2] and 8 nM in data set [3].
For the compound `c1cnn2ncc(-c3ccnc(NCCCN4CCOCC4)n3)c2c1` [GW683109X], the half-inhibitory concentration (IC50) in data set [2] is 3200 nM.
On to `CCc1nn2ncccc2c1-c1ccnc(NC2CC2)n1` [GW683768X], for which the values for the concentration for half-maximal inhibition (IC50) in data set [2] and in data set [4] were 2000 nM and 3200 nM, respectively.
Take `c1cc(-c2cnn3nc(N4CCOCC4)ccc23)nc(NC2CC2)n1` [GW708336X]: the AUC in the data set with Mus musculus [5] was greater than 1000 ng·kg·h/mg/mL. In addition, the IC50 in data set [2] came out at 400 nM.
For `c1cc(-c2cnn3nc(N4CCCC4)ccc23)nc(NC2CC2)n1`, the IC50 in data set [2] was 500 nM; in data set [3], 25000 nM.
Turning to `Cc1nn2ncccc2c1-c1ccnc(NC2CC2)n1`, the values for the IC50 in data set [2] and in data set [4] were 800 nM and greater than 20000 nM, respectively.
`c1cnn2ncc(-c3ccnc(NC4CC4)n3)c2c1`: the 50% inhibitory concentration (IC50) in data set [2] was 80 nM; in data set [4], greater than 20000 nM. Besides, the remaining at 1 h in data set [6] worked out at 85%.
`CC(C)Oc1ccc2c(-c3ccnc(NC4CC4)n3)cnn2n1` registered an AUC in the data set with Mus musculus [5] greater than 1000 ng·kg·h/mg/mL. Besides, the values for the IC50 in data set [2] and in data set [3] were 1600 nM and 25000 nM, respectively.
As to `CCc1nn2ncccc2c1-c1ccnc(Nc2ccc(N3CCN(C)CC3)cc2)n1`, the half-inhibitory concentration (IC50) in data set [2] is 25 nM; in data set [4], 63 nM.
Consider `CCCCc1nn2ncccc2c1-c1ccnc(Nc2ccc(N3CCN(C)CC3)cc2)n1`, for which the IC50 was 800 nM in data set [2] and 25 nM in data set [4].
`CCN(CC)CCNC(=O)c1cccc(Nc2nccc(-c3cnn4ncccc34)n2)c1`: the IC50 in data set [1] was 40 nM; in data set [2], 8 nM; in data set [3], 20 nM.
In the case of `N#Cc1cccc(Nc2nccc(-c3cnn4ncccc34)n2)c1` [GW778894X], the IC50 in data set [1] amounted to 2 nM; in data set [2], 4 nM.
As to `c1cc(-c2cnn3nc(NC4CCCC4)ccc23)nc(NC2CC2)n1`, the half-maximal inhibitory concentration (IC50) in data set [2] was 160 nM; in data set [3] it was 25000 nM.
As for `CCCCc1nn2ncccc2c1-c1ccnc(NC2CC2)n1`, the IC50 was greater than 40000 nM in data set [2] and 2500 nM in data set [4].
Take `FC(F)(F)CNc1nccc(-c2cnn3ncccc23)n1` [GW683003X]: the IC50 in data set [1] was 1000 nM; in data set [2], 1000 nM; in data set [3], greater than 32000 nM.
`O=[N+]([O-])c1cccc(Nc2nccc(-c3cnn4ncccc34)n2)c1`: the half-inhibitory concentration (IC50) in data set [1] and in data set [2] was 0.3 nM throughout.
`Fc1ccc(-c2ccc3c(-c4ccnc(NC5CC5)n4)cnn3n2)cc1`: the results for the 50% inhibitory concentration (IC50) in data set [2] and in data set [3] were 250 nM and greater than 32000 nM, respectively.
On to `CC(C)c1ccc(Nc2nccc(-c3cnn4ncccc34)n2)cc1` [GW805758X], for which the IC50 in data set [1] stood at 40 nM; in data set [3], 16 nM.
Compound `CN(C)CC(O)COc1ccc(Nc2nccc(-c3cnn4nc(N5CCOCC5)ccc34)n2)cc1` (stereo not given) yielded an AUC with Mus musculus [7] greater than 7000 ng·kg·h/mg/mL. Moreover, the half-maximal inhibitory concentration (IC50) in data set [2] was 38 nM. For the same compound, the remaining at 1 h in data set [6] stood at 46%.
Consider `Clc1ccc(CNc2nccc(-c3cnn4ncccc34)n2)cc1` [GW781673X], for which the IC50 in data set [1] and in data set [2] was 1000 nM in each case.
Regarding `COc1ccc2c(-c3ccnc(NC4CC4)n3)cnn2n1`, the IC50 in data set [2] is 2000 nM; in data set [3], 25000 nM.
Take `N#Cc1ccc(Nc2nccc(-c3cnn4ncccc34)n2)cc1`: the half-maximal inhibitory concentration (IC50) in data set [1] came out at 2 nM; in data set [2], 25 nM; in data set [3] it was 5 nM.
On to `Oc1ccc2c(-c3ccnc(NC4CC4)n3)cnn2n1`, for which the results for the IC50 in data set [2] and in data set [3] were 1300 nM and 25000 nM, respectively.
`c1csc(-c2ccc3c(-c4ccnc(NC5CC5)n4)cnn3n2)c1`: the figures for the IC50 in data set [2] and in data set [3] were 250 nM and greater than 32000 nM, respectively.
As to `CN1CCN(c2ccc(Nc3nccc(-c4cnn5ncccc45)n3)cc2)CC1`, the IC50 in data set [1] was 100 nM; in data set [2], 12 nM; in data set [4], 400 nM; in data set [3], 200 nM.
For `CCN(CC)Cc1cccc(Nc2nccc(-c3cnn4ncccc34)n2)c1`, the 50% inhibitory concentration (IC50) in data set [1] is 50 nM; in data set [2], 12 nM; in data set [3] it was 79 nM.
For `CC(C)Oc1ccc2c(-c3ccnc(Nc4ccc(N5CCN(C)CC5)cc4)n3)cnn2n1` the same measures were 230 nM, 45 nM and 850 nM.
Consider `Cc1nn2ncccc2c1-c1ccnc(Nc2ccc(N3CCN(C)CC3)cc2)n1`, for which the 50% inhibitory concentration (IC50) in data set [2] turned out to be 50 nM; in data set [4] it was 63 nM.
In the case of `NC(=O)c1ccc(Nc2nccc(-c3cnn4ncccc34)n2)cc1`, the figures for the concentration for half-maximal inhibition (IC50) in data set [1], in data set [2] and in data set [3] were 16 nM, 160 nM and 20 nM, respectively.
